Experiments:
Hepatitis C virus = test: Antiviral activity against HCV genotype 1b Con1 infected in human HuH7.5 cells assessed as inhibition of viral replication after 4 days by luciferase reporter gene assay; assay type: functional, organism-based, Hepacivirus hominis; conditions: isolate Con1, Huh7.5, 96 h
[1] = Oral bioavailability in Sprague-Dawley rat at 15 mg/kg, administered via gavage by LC/MS/MS analysis; assay type: ADME, organism-based; conditions: in vivo
[2] = Clearance in Sprague-Dawley rat at 15 mg/kg, po administered via gavage or 5 mg/kg, iv administered as 10 mins infusion by LC/MS/MS analysis; assay type: ADME, organism-based; conditions: in vivo
[3] = AUC in Sprague-Dawley rat at 15 mg/kg, po administered via gavage or 5 mg/kg, iv administered as 10 mins infusion by LC/MS/MS analysis; assay type: ADME, organism-based; conditions: in vivo
[4] = Elimination half life in Sprague-Dawley rat at 15 mg/kg, po administered via gavage or 5 mg/kg, iv administered as 10 mins infusion by LC/MS/MS analysis; assay type: ADME, organism-based; conditions: in vivo, read-out: beta t1/2 (converted)
[5] = target: Hepatitis C virus serine protease, NS3/NS4A (Hepatitis C virus, UniProt A3EZI9+D2K2A8)
Hepatitis C virus serine protease, NS3/NS4A, sequence (D2K2A8 whole entry): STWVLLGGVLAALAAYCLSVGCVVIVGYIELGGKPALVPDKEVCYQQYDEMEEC
Hepatitis C virus serine protease, NS3/NS4A, sequence (A3EZI9 whole entry): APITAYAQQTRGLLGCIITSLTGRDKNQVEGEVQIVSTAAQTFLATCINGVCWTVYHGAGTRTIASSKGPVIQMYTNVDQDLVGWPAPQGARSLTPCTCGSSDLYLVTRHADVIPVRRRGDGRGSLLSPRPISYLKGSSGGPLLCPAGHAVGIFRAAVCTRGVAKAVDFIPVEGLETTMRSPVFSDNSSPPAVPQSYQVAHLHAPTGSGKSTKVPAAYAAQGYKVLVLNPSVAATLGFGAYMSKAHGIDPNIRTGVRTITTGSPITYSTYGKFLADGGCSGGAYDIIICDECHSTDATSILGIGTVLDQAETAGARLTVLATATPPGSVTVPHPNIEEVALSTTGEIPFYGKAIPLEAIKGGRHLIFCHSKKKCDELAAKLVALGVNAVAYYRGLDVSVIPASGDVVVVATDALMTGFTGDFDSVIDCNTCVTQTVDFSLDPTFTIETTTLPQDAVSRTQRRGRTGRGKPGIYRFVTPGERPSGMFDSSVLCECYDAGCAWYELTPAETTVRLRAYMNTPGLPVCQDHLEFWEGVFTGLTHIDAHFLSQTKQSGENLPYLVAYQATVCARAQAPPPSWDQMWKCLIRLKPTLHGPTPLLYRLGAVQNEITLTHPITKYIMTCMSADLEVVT
Description: Inhibition of recombinant full length HCV genotype 1a NS3/4A protease (1027 to 1711 residues) expressed in Escherichia coli strain BL21 (DE3) using RET S1 as substrate incubated for 1 min followed by substrate addition measured after 15 mins by FRET assay

[6] = Half life in human liver microsomes by LC/MS/MS analysis; assay type: ADME, microsome
[7] = Drug uptake in Sprague-Dawley rat liver at 15 mg/kg, po administered via gavage by LC/MS/MS analysis; assay type: ADME, organism-based; conditions: in vivo, read-out: Drug uptake
[8] = Permeability from apical to basolateral side in human Caco2 cells; assay type: ADME, cell-based; conditions: Caco-2, read-out: permeability
[9] = Permeability from basolateral to apical side in human Caco2 cells; assay type: ADME, cell-based; conditions: Caco-2, read-out: permeability

Row | Structure (SMILES) | EC50 (Hepatitis C virus) [nM] | IC50 [5] [nM] | half-life [6] [h] | other results
1 | COc1cnc(O[C@@H]2C[C@@H](C(=O)N[C@]3(C(=O)NS(=O)(=O)C4CC4)C[C@H]3C3CC3)N(C(=O)[C@@H](NC(=O)OC(C)(C)C)C(C)(C)C)C2)c2cc(Cl)ccc12 | 18.3 | 6 | – | bioavailability [1]: 34 to 44.2%; clearance [2]: 5.2 mL/min/kg; AUC at 10 min [3]: 19.6 µM·h; half-life [4]: 6 to 10 h
2 | COc1cnc(O[C@@H]2C[C@@H](C(=O)N[C@]3(C(=O)NS(=O)(=O)C4CC4)C[C@H]3C(F)(F)F)N(C(=O)[C@@H](NC(=O)OC(C)(C)C)C(C)(C)C)C2)c2cc(Cl)ccc12 | 125 | 17 | 0.783 | –
3 | COc1cnc(O[C@@H]2C[C@@H](C(=O)NC(C)(C)C(=O)NS(=O)(=O)C3CC3)N(C(=O)[C@@H](NC(=O)OC(C)(C)C)C(C)(C)C)C2)c2cc(Cl)ccc12 | > 1000 | 2190 | – | –
4 | COc1cnc(O[C@@H]2C[C@@H](C(=O)NC3(C(=O)NS(=O)(=O)C4CC4)CC3)N(C(=O)[C@@H](NC(=O)OC(C)(C)C)C(C)(C)C)C2)c2cc(Cl)ccc12 | 336 | 40 | 2 | –
5 | COc1cnc(O[C@@H]2C[C@@H](C(=O)N[C@H](CC(F)F)C(=O)NS(=O)(=O)C3CC3)N(C(=O)[C@@H](NC(=O)OC(C)(C)C)C(C)(C)C)C2)c2cc(Cl)ccc12 | > 1000 | 2480 | – | –
6 | CC[C@@H](NC(=O)[C@@H]1C[C@@H](Oc2ncc(OC)c3ccc(Cl)cc23)CN1C(=O)[C@@H](NC(=O)OC(C)(C)C)C(C)(C)C)C(=O)NS(=O)(=O)C1CC1 | > 1000 | 7980 | – | –
7 | COc1cnc(O[C@@H]2C[C@@H](C(=O)N[C@]3(C(=O)NS(=O)(=O)C4CC4)C[C@H]3C(F)F)N(C(=O)[C@@H](NC(=O)OC(C)(C)C)C(C)(C)C)C2)c2cc(Cl)ccc12 | 7.6 to 8 | – | 2 | bioavailability [1]: 0.9%; clearance [2]: 58 mL/min/kg; AUC at 10 min [3]: 0.05 µM·h; half-life [4]: 2.6 h; concentration [7]: 0.27 µM; Papp A→B [8]: < 1.5 ×10⁻⁶ cm/s; Papp B→A [9]: 4.7 ×10⁻⁶ cm/s
8 | C=C[C@@H]1C[C@]1(NC(=O)[C@@H]1C[C@@H](Oc2ncc(OC)c3ccc(Cl)cc23)CN1C(=O)[C@@H](NC(=O)OC(C)(C)C)C(C)(C)C)C(=O)NS(=O)(=O)C1CC1 | – | – | – | AUC at 10 min [3]: 1 µM·h
9 | C=CC[C@](C)(NC(=O)[C@@H]1C[C@@H](Oc2ncc(OC)c3ccc(Cl)cc23)CN1C(=O)[C@@H](NC(=O)OC(C)(C)C)C(C)(C)C)C(=O)NS(=O)(=O)C1CC1 | 23000 | 33000 | 0.892 | –
10 | COc1ccc2c(O[C@@H]3C[C@@H](C(=O)NC(CC(F)F)C(=O)NS(=O)(=O)C4CC4)N(C(=O)[C@@H](NC(=O)OC(C)(C)C)C(C)(C)C)C3)cc(-c3ccccc3)nc2c1 (stereo partly drawn) | – | > 1000 | – | –
11 | COc1cnc(O[C@@H]2C[C@@H](C(=O)N[C@]3(C(=O)NS(=O)(=O)C4CC4)C[C@H]3C)N(C(=O)[C@@H](NC(=O)OC(C)(C)C)C(C)(C)C)C2)c2cc(Cl)ccc12 | 64 | 13 | 1.6 | –
12 | COc1cnc(O[C@@H]2C[C@@H](C(=O)NC3(C(=O)NS(=O)(=O)C4CC4)CCC3)N(C(=O)[C@@H](NC(=O)OC(C)(C)C)C(C)(C)C)C2)c2cc(Cl)ccc12 | 1280 | 261 | – | –
13 | CC[C@H](NC(=O)[C@@H]1C[C@@H](Oc2ncc(OC)c3ccc(Cl)cc23)CN1C(=O)[C@@H](NC(=O)OC(C)(C)C)C(C)(C)C)C(=O)NS(=O)(=O)C1CC1 | > 1000 | 3080 | – | –
14 | COc1cnc(O[C@@H]2C[C@@H](C(=O)N[C@@H](CC(F)F)C(=O)NS(=O)(=O)C3CC3)N(C(=O)[C@@H](NC(=O)OC(C)(C)C)C(C)(C)C)C2)c2cc(Cl)ccc12 | 509 | 976 | – | –
15 | CC[C@@H]1C[C@]1(NC(=O)[C@@H]1C[C@@H](Oc2ncc(OC)c3ccc(Cl)cc23)CN1C(=O)[C@@H](NC(=O)OC(C)(C)C)C(C)(C)C)C(=O)NS(=O)(=O)C1CC1 | 16 | 5 | – | AUC at 10 min [3]: 6.89 µM·h; concentration [7]: 40.3 µM
16 | COc1cnc(O[C@@H]2C[C@@H](C(=O)N[C@]3(C(=O)NS(=O)(=O)C4CC4)C[C@H]3CC(F)F)N(C(=O)[C@@H](NC(=O)OC(C)(C)C)C(C)(C)C)C2)c2cc(Cl)ccc12 | 31 | 14 | 3.33 | –

— ChEMBL document CHEMBL4138306, “Potent Inhibitors of Hepatitis C Virus NS3 Protease: Employment of a Difluoromethyl Group as a Hydrogen-Bond Donor” (ACS Med Chem Lett, 2018)
